≈ marks a conversion by molar mass, not a printed value.
How the values were obtained:
[1] = tested on: MDA-MB-231; assay: Cytotoxicity against human MDA-MB-231 cells assessed as cell growth inhibition measured after 24 hrs by crystal violet staining based assay; format: functional; conditions: MDA-MB-231, 24 h
[2] = tested on: HeLa; assay: Cytotoxicity against human HeLa cells assessed as cell growth inhibition measured after 24 hrs by MTT assay; format: functional, cell-based
[3] = tested on: HL-60; assay: Cytotoxicity against human HL-60 cells assessed as cell growth inhibition measured after 48 hrs; format: functional, cell-based; conditions: HL-60, 48 h
[4] = tested on: MCF7; assay: Cytotoxicity against human MCF7 cells assessed as cell growth inhibition measured after 48 hrs by MTT assay; format: functional, cell-based; conditions: MCF7, 48 h
[5] = tested on: HeLa; assay: Cytotoxicity against human HeLa cells assessed as cell growth inhibition measured after 48 hrs by MTT assay; format: functional, cell-based
[6] = tested on: HCT-116; assay: Cytotoxicity against human HCT-116 cells assessed as cell growth inhibition measured after 48 hrs by MTT assay; format: functional, cell-based; conditions: HCT-116, 48 h
[7] = tested on: A549; assay: Cytotoxicity against human A549 cells assessed as cell growth inhibition measured after 48 hrs by MTT assay; format: functional, cell-based; conditions: A549, 48 h
[8] = tested on: PANC-1; assay: Cytotoxicity against human PANC-1 cells assessed as cell growth inhibition measured after 48 hrs by MTT assay; format: functional, cell-based; conditions: PANC-1, 48 h
[9] = Cytotoxicity against human HUVEC cells assessed as cell growth inhibition measured after 48 hrs by MTT assay; format: toxicity, cell-based
[10] = Cytotoxicity against human L929 cells assessed as cell growth inhibition measured after 48 hrs by MTT assay; format: toxicity, cell-based; conditions: mouse
[11] = tested on: PANC-1; assay: Cytotoxicity against human PANC-1 cells assessed as cell growth inhibition measured after 72 hrs by MTT assay; format: functional, cell-based; conditions: PANC-1, 72 h
[12] = tested on: A-431; assay: Cytotoxicity against human A-431 cells assessed as cell growth inhibition measured after 48 hrs by MTT assay; format: functional, cell-based; conditions: A-431, 48 h
[13] = tested on: Jurkat; assay: Cytotoxicity against human Jurkat cells assessed as reduction in cell viability at 25 ug/ml measured after 24 hrs; format: functional; conditions: dose 25 µg/ml
[14] = Antitumor activity against human HeLa cells xenografted in BALB/c mouse assessed as reduction in tumor weight at 5 mg/kg, IG administered once daily for 12 days measured after 14 days; format: functional; parameters: scale not given: the % may be the effect or the level left; conditions: time 12 day
[15] = Antitumor activity against human HeLa cells xenografted in BALB/c mouse assessed as reduction in tumor weight at 50 mg/kg, IG administered once daily for 12 days measured after 14 days; format: functional; parameters: scale not given: the % may be the effect or the level left; conditions: time 12 day
[16] = Antitumor activity against human HeLa cells xenografted in BALB/c mouse assessed as reduction in tumor weight at 500 mg/kg, IG administered once daily for 12 days measured after 14 days; format: functional; parameters: scale not given: the % may be the effect or the level left; conditions: time 12 day
[17] = tested on: HPAC; assay: Cytotoxicity against human HPAC cells assessed as reduction in LDH release at 100 ug/ml measured after 12 hrs by CytoTox96 nonradioactive assay; format: functional; parameters: scale not given: the % may be the effect or the level left; conditions: dose 100 µg/ml
[18] = tested on: K562; assay: Cytotoxicity against human K562 cells assessed as cell growth inhibition measured after 48 hrs; format: functional, cell-based; conditions: K562, 48 h
[19] = tested on: ECa-109 cell line; assay: Cytotoxicity against human Eca-109 cells assessed as cell growth inhibition measured after 24 hrs by MTT assay; format: functional, cell-based; conditions: ECa-109, 24 h
[20] = tested on: KYSE-450; assay: Cytotoxicity against human KYSE-450 cells assessed as cell growth inhibition measured after 24 hrs by MTT assay; format: functional, cell-based; conditions: KYSE-450, 24 h
[21] = tested on: A549; assay: Cytotoxicity against human A549 cells assessed as cell growth inhibition measured after 48 hrs; format: functional, cell-based; conditions: A549, 48 h
[22] = Cytotoxicity against human CCD-841CoN cells assessed as cell growth inhibition measured after 24 hrs by MTT assay; format: toxicity, cell-based
[23] = tested on: THP-1; assay: Cytotoxicity against human THP-1 cells assessed as cell growth inhibition measured after 24 hrs by MTT assay; format: functional, cell-based; conditions: THP-1, 24 h
[24] = tested on: THP-1; assay: Cytotoxicity against human THP-1 cells assessed as cell growth inhibition measured after 48 hrs by MTT assay; format: functional, cell-based; conditions: THP-1, 48 h
[25] = tested on: THP-1; assay: Cytotoxicity against human THP-1 cells assessed as cell growth inhibition measured after 72 hrs by MTT assay; format: functional, cell-based; conditions: THP-1, 72 h
[26] = Cytotoxicity against human HEK293 cells assessed as cell growth inhibition measured after 24 hrs by MTT assay; format: toxicity, cell-based
[27] = Cytotoxicity against human HEK293 cells assessed as cell growth inhibition measured after 48 hrs by MTT assay; format: toxicity, cell-based
[28] = Cytotoxicity against human HEK293 cells assessed as cell growth inhibition measured after 72 hrs by MTT assay; format: toxicity, cell-based
[29] = tested on: LN-229; assay: Cytotoxicity against human LN-229 cells assessed as cell growth inhibition measured after 48 hrs; format: functional, cell-based; conditions: LN-229, 48 h
[30] = tested on: MDA-MB-231; assay: Cytotoxicity against human MDA-MB-231 cells assessed as reduction in cell viability at 3.68 ug/ml measured after 24 hrs by MTT assay relative to control; format: functional; conditions: dose 3.68 µg/ml
[31] = tested on: MDA-MB-231; assay: Cytotoxicity against human MDA-MB-231 cells assessed as reduction in cell viability at 3.68 ug/ml measured after 48 hrs by MTT assay relative to control; format: functional; conditions: dose 3.68 µg/ml
[32] = tested on: MCF7; assay: Cytotoxicity against human MCF7 cells assessed as reduction in cell viability at 14.7 ug/ml measured after 24 hrs by MTT assay relative to control; format: functional; conditions: dose 14.7 µg/ml
[33] = tested on: MCF7; assay: Cytotoxicity against human MCF7 cells assessed as reduction in cell viability at 14.7 ug/ml measured after 48 hrs by MTT assay relative to control; format: functional; conditions: dose 14.7 µg/ml
[34] = tested on: HT-29; assay: Cytotoxicity against human HT-29 cells assessed as cell growth inhibition; format: functional, cell-based
[35] = tested on: LS180; assay: Cytotoxicity against human LS180 cells assessed as cell growth inhibition; format: functional, cell-based
[36] = tested on: Caco-2; assay: Cytotoxicity against human Caco2 cells assessed as cell growth inhibition measured after 24 by MTT assay; format: functional, cell-based
[37] = tested on: Jurkat; assay: Cytotoxicity against human Jurkat cells assessed as cell growth inhibition measured after 45 hrs; format: functional, cell-based
[38] = tested on: Jurkat; assay: Cytotoxicity against human Jurkat cells assessed as cell growth inhibition measured after 24 hrs; format: functional, cell-based

CC(=O)OC[C@H]1O[C@H]2OC(C)/C=C/C/C=C/C/C=C\CCCCCCCC(=O)O[C@H]3[C@H](O)[C@@H](O)[C@H](O[C@@H]2[C@@H](O)[C@@H]1O)O[C@@H]3COC(C)=O (stereo partly specified)
IC50 [1]: 30 µM | IC50 [2]: 51.5 mg/L (≈ 75.2 µM) | IC50 [3]: 5 mg/L (≈ 7.3 µM)

CCCCCCCCCCCCCCCCO[C@@H]1O[C@H](CO)[C@@H](O)[C@H](O)[C@H]1O[C@@H]1O[C@H](CO)[C@@H](O)[C@H](O)[C@H]1O
IC50 [4]: 65.7 mg/L (≈ 116 µM) | IC50 [5]: 16.3 mg/L (≈ 28.8 µM) | IC50 [6]: 62.8 mg/L (≈ 111 µM) | IC50 [7]: 236 mg/L | IC50 [8]: 113 mg/L (≈ 199 µM) | IC50 at 48 h [9]: > 320 mg/L | IC50 at 48 h [10]: > 320 mg/L | IC50 [11]: > 100 mg/L | IC50 [12]: 236 mg/L (≈ 417 µM)

CCOC(=O)CCCCCCC/C=C\CCCCCCC(C)O[C@@H]1O[C@H](COC(C)=O)[C@@H](O)[C@H](O)[C@H]1O[C@@H]1O[C@H](COC(C)=O)[C@@H](O)[C@H](O)[C@H]1O (stereo partly specified)
Activity [13]: 90%

CC(=O)OC[C@H]1O[C@H]2O[C@H]3[C@H](OC(C)CCCCCC/C=C\CCCCCCCC(=O)O[C@H]1[C@H](O)[C@H]2O)O[C@H](CO)[C@@H](O)[C@@H]3O (stereo partly specified)
IC50 [1]: 15 µM | Activity [14]: 29.9% | Activity [15]: 41.24% | Activity [16]: 52.06%

CCOC(=O)CCCCCCC/C=C\CCCCCCC(C)O[C@@H]1O[C@H](COC(C)=O)[C@@H](O)[C@H](O)[C@H]1O[C@@H]1O[C@H](CO)[C@@H](O)[C@H](O)[C@H]1O (stereo partly specified)
Activity [17]: 27.4%

CCCCOC(=O)CCCCCCC/C=C\CCCCCCC(C)O[C@@H]1O[C@H](COC(C)=O)[C@@H](O)[C@H](O)[C@H]1O[C@@H]1O[C@H](COC(C)=O)[C@@H](O)[C@H](O)[C@H]1O (stereo partly specified)
Activity [13]: 99%

CC(=O)OC[C@H]1O[C@H]2OC(C)CCCCCCCCCCCCCCCC(=O)O[C@H]3[C@H](O)[C@@H](O)[C@H](O[C@@H]2[C@@H](O)[C@@H]1O)O[C@@H]3COC(C)=O (stereo partly specified)
IC50 [1]: 15 µM | IC50 [2]: 30.2 mg/L (≈ 43.7 µM)

CCCCOC(=O)CCCCCCC/C=C\CCCCCCC(C)O[C@@H]1O[C@H](CO)[C@@H](O)[C@H](O)[C@H]1O[C@@H]1O[C@H](CO)[C@@H](O)[C@H](O)[C@H]1O (stereo partly specified)
Activity [13]: 0%

CC(CCCCCC/C=C\CCCCCCCC(=O)O)O[C@@H]1O[C@H](CO)[C@@H](O)[C@H](O)[C@H]1O[C@@H]1O[C@H](CO)[C@@H](O)[C@H](O)[C@H]1O (stereo partly specified)
IC50 [1]: 80 µM

CCCCCCCCCCCCCCCCO[C@@H]1O[C@H](COC(C)=O)[C@@H](O)[C@H](O)[C@H]1O[C@@H]1O[C@H](CO)[C@@H](O)[C@H](O)[C@H]1O
IC50 [4]: 37.7 mg/L (≈ 61.9 µM) | IC50 [5]: 14.1 mg/L (≈ 23.2 µM) | IC50 [6]: 23.2 mg/L (≈ 38.1 µM) | IC50 [7]: 15 mg/L | IC50 [8]: 116 mg/L (≈ 191 µM) | IC50 at 48 h [9]: > 320 mg/L | IC50 at 48 h [10]: > 320 mg/L | IC50 [11]: > 100 mg/L | IC50 [12]: 14.9 mg/L (≈ 24.6 µM)

CC(=O)OC[C@H]1O[C@H]2OC(C)/C=C/C/C=C/C/C=C\C/C=C/CCCCC(=O)O[C@H]3[C@H](O)[C@@H](O)[C@H](O[C@@H]2[C@@H](O)[C@@H]1O)O[C@@H]3COC(C)=O (stereo partly specified)
IC50 [18]: 40 mg/L (≈ 58.6 µM)

COC(=O)CCCCCCC/C=C\CCCCCCC(C)O[C@@H]1O[C@H](CO)[C@@H](O)[C@H](O)[C@H]1O[C@@H]1O[C@H](CO)[C@@H](O)[C@H](O)[C@H]1O (stereo partly specified)
Activity [17]: 58.4%

COC(=O)CCCCCCC/C=C\CCCCCCC(C)O[C@@H]1O[C@H](COC(C)=O)[C@@H](O)[C@H](O)[C@H]1O[C@@H]1O[C@H](COC(C)=O)[C@@H](O)[C@H](O)[C@H]1O (stereo partly specified)
Activity [17]: 25.5%

CCOC(=O)CCCCCCC/C=C\CCCCCCC(C)O[C@@H]1O[C@H](CO)[C@@H](O)[C@H](O)[C@H]1O[C@@H]1O[C@H](CO)[C@@H](O)[C@H](O)[C@H]1O (stereo partly specified)
Activity [13]: 0% | Activity [17]: 23.6%

CC(=O)OC[C@H]1O[C@H]2OC(C)CCC/C=C/C/C=C\CCCCCCCC(=O)O[C@H]3[C@H](O)[C@@H](O)[C@H](O[C@@H]2[C@@H](O)[C@@H]1O)O[C@@H]3COC(C)=O (stereo partly specified)
IC50 [2]: 476 mg/L (≈ 694 µM) | IC50 [19]: 15 mg/L (≈ 21.8 µM) | IC50 [20]: 35 mg/L (≈ 51 µM) | IC50 [21]: 22 mg/L (≈ 32 µM)

COc1cccc2c1C(=O)c1c(O)c3c(c(O)c1C2=O)C[C@@](O)(C(=O)CO)C[C@@H]3O[C@H]1C[C@H](N)[C@H](O)[C@H](C)O1 [DOXORUBICIN]
IC50 at 24 h [22]: 1.5 mg/L (≈ 2.76 µM) | IC50 [2]: 7.4 mg/L (≈ 13.6 µM) | IC50 [5]: 13 mg/L (≈ 23.9 µM) | IC50 [23]: 15.7 mg/L (≈ 28.9 µM) | IC50 [24]: 6.5 mg/L (≈ 12 µM) | IC50 [25]: 3 mg/L (≈ 5.52 µM) | IC50 [7]: 9.5 µM | IC50 at 24 h [26]: 16.7 mg/L (≈ 30.7 µM) | IC50 at 48 h [27]: 6.1 mg/L (≈ 11.2 µM) | IC50 at 72 h [28]: 1 mg/L (≈ 1.84 µM) | IC50 [29]: 2 mg/L (≈ 3.68 µM) | Activity [30]: 55% | Activity [31]: 45% | Activity [32]: 45% | Activity [33]: 40% | IC50 [34]: 1.6 mg/L (≈ 2.94 µM) | IC50 [35]: 0.7 mg/L (≈ 1.29 µM) | IC50 [36]: 64.2 mg/L (≈ 118 µM) | IC50 [37]: 0.3 µM | IC50 [38]: 1 µM

From ChEMBL document CHEMBL5120863, “Sophorolipids: Anti-cancer activities and mechanisms” (Bioorg Med Chem, 2022)
